Where two headings read alike, the source gives them in different places.

Holding throughout (assay type): cell-based, human
The subject of assay [1] is phosphorylation of RSK1(S380) (the downstream target of ERK1/2). Nature of the assay: Phospho-RSK1(S380) ELISA assay in HT-29 cells. To be noted: read-out: Mechanistic Cell Assay RSK1 Phos HT29 IC50. The procedure:
Phospho-RSK1(S380) ELISA Assay
HT-29 cells (colorectal carcinoma, B-RafV600E); obtained from ATCC, USA) were seeded (60,000 cells/well) in a 96-well plate and incubated at 37° C./5% CO2 overnight and then treated with desired compound dilutions for 2 h. Medium was removed and cells were rinsed once with ice-cold 1×PBS, then 0.070 mL ice-cold 1× cell lysis buffer containing 1 mM PMSF was added to each well and the plate was incubated on a shaker for 2 h and 30 min at 4° C. The plate was then centrifuged for 20 min (×4000 rpm) at 4° C. and the supernatant was transferred to a new plate. Cell lysates were diluted with sample diluent at a ratio of 1:1. The ELISA was then carried out following the manufacturer's protocol (PathScan® phospho-RSK1(Ser380) Sandwich ELISA Kit, Cell Signaling Technologies). The plate was read at 450 nm within 30 min after adding STOP solution. The IC50 values were subsequently determined using a sigmoidal dose-response curve (variable slope) in GraphPad Prism® 5 software.

The test system of assay [2] is HT-29 (colorectal carcinoma, B-RafV600E) cells. Nature of the assay: Cell proliferation (Alamar Blue) assay, HT-29. A digest of the protocol: (§1)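 IC50 values derive from variable-slope sigmoidal fits of Alamar Blue fluorescence (540 nm excitation, 590 nm emission, 1-3 h dye incubation). Compound treatment ran 72 h at 37° C./5% CO2 over roughly 0.0005-10 uM in 3-fold steps, on cells plated at 5000/well and pre-incubated 16-24 h.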

For assay [3], the system named is HCT116 (colorectal carcinoma, K Ras G13D) cells. As to the kind of experiment: Cell proliferation (Alamar Blue) assay, HCT116. A digest of the protocol:
as §1

[4] abbreviates: Homo sapiens, HT-29, HT29 cells, phospho-RSK1(S380).
Where [5] appears, read: Homo sapiens, HT-29, HT29 cells.
Where [6] appears, read: Homo sapiens, HCT-116, HCT116 cells.

For the compound `Cc1cnc(Nc2ccc3c(c2)OCO3)nc1-n1ccc(C(=O)NC(CO)c2cc(Cl)cc(Cl)c2)c1` (stereo not shown) [Example 58, 1-(2-(benzo[d][1,3]dioxol-5-ylamino)-5-methyl-pyrimidin-4-yl)-N-(1-(3,5-dichloro-phenyl)-2-hydroxy-ethyl)-1H-pyrrole-3-carboxamide], the figures for the IC50 in assay [1] (setting [4]), in assay [2] (setting [5]) and in assay [3] (setting [6]) were 500 to 2500 nM, 500 to 2500 nM and greater than 2500 nM, respectively.

For `CC[C@@H](CO)Nc1ncc(C)c(-n2ccc(C(=O)NC(CO)c3ccccc3)c2)n1` (stereo partly drawn) [Example 75, N-(2-hydroxy-1-phenylethyl)-1-(2-(((S)-1-hydroxy-butan-2-yl)amino)-5-methyl-pyrimidin-4-yl)-1H-pyrrole-3-carboxamide], the IC50 was 500 to 2500 nM in assay [1] (setting [4]), 500 to 2500 nM in assay [2] (setting [5]) and greater than 2500 nM in assay [3] (setting [6]).

Turning to `CC(=O)NCC(NC(=O)c1ccn(-c2nc(Nc3ccc4c(c3)OC(F)(F)O4)ncc2C)c1)c1cccc(Cl)c1` (stereo not shown) [Example 158, N-(2-acetamido-1-(3-chloro-phenyl)-ethyl)-1-(2-((2,2-difluoro-benzo[d][1,3]dioxol-5-yl)-amino)-5-methyl-pyrimidin-4-yl)-1H-pyrrole-3-carboxamide], the results for the IC50 in assay [1] (setting [4]), in assay [2] (setting [5]) and in assay [3] (setting [6]) were greater than 2500 nM, 500 to 2500 nM and 500 to 2500 nM, respectively.

Take `Cc1cnc(NC2CCOCC2)nc1-n1cnc(C(=O)NCc2nccs2)c1` [Example 281, 1-(5-methyl-2-((tetrahydro-2H-pyran-4-yl)amino)pyrimidin-4-yl)-N-(thiazol-2-ylmethyl)-1H-imidazole-4-carboxamide]: the IC50 was 100 to 250 nM in assay [1] (setting [4]), 500 to 2500 nM in assay [2] (setting [5]) and greater than 2500 nM in assay [3] (setting [6]).

For the compound `Cc1cnc(NC2CCNCC2)nc1-n1cnc(C(=O)NC(CO)c2cccc(Cl)c2)c1` (stereo not shown) [Example 214, N-(1-(3-chlorophenyl)-2-hydroxyethyl)-1-(5-methyl-2-(piperidin-4-ylamino)pyrimidin-4-yl)-1H-imidazole-4-carboxamide], the concentration for half-maximal inhibition (IC50) in assay [1] (setting [4]), in assay [2] (setting [5]) and in assay [3] (setting [6]) was greater than 2500 nM in each case.

Take `Cc1cnc(N[C@H]2CCOC2)nc1-n1cnc(C(=O)NCc2cccc(CO)c2Cl)c1` [Example 338, (S)-N-(2-chloro-3-(hydroxymethyl)benzyl)-1-(5-methyl-2-((tetrahydrofuran-3-yl)amino)pyrimidin-4-yl)-1H-imidazole-4-carboxamide]: the IC50 was 500 to 2500 nM in assay [1] (setting [5]), greater than 2500 nM in assay [2] (setting [5]) and 500 to 2500 nM in assay [3] (setting [6]).

Take `Cc1cnc(NC2CCCOC2)nc1-n1ccc(C(=O)N[C@H](CO)c2cccc(Cl)c2)c1` (stereo partly drawn) [Example 156, N-((S)-1-(3-chloro-phenyl)-2-hydroxy-ethyl)-1-(5-methyl-2-((tetrahydro-2H-pyran-3-yl)amino)-pyrimidin-4-yl)-1H-pyrrole-3-carboxamide]: the half-maximal inhibitory concentration (IC50) lay in the range of 250 to 500 nM in assay [1] (HT29 cells, phospho-RSK1(S380)); 250 to 500 nM in assay [2] (HT29 cells); 500 to 2500 nM in assay [3] (HCT116 cells).

With `Cc1cnc(Nc2ccc3c(c2)OCO3)nc1-n1ccc(C(=O)NC(CO)c2ccc(F)cc2)c1` (stereo not shown) [Example 172, 1-(2-(benzo[d][1,3]dioxol-5-ylamino)-5-methylpyrimidin-4-yl)-N-(1-(4-fluorophenyl)-2-hydroxyethyl)-1H-pyrrole-3-carboxamide], the IC50 lay within 100 to 250 nM in assay [1] (setting [4]), 500 to 2500 nM in assay [2] (setting [5]) and 250 to 500 nM in assay [3] (setting [6]).

With `CC[C@@H](CO)Nc1cc(-n2ccc(C(=O)NC(CO)c3cccc(Cl)c3)c2)ccn1` (stereo partly drawn) [Example 109, N-(1-(3-chloro-phenyl)-2-hydroxy-ethyl)-1-(2-(((S)-1-hydroxy-butan-2-yl)amino)pyridin-4-yl)-1H-pyrrole-3-carboxamide], the IC50 in assay [1] (setting [4]) was 250 to 500 nM; in assay [2] (setting [5]), greater than 2500 nM; in assay [3] (setting [6]), greater than 2500 nM.

For `Cc1cnc(NC2CCC(F)(F)CC2)nc1-n1cnc(C(=O)N[C@H](CN)c2cccc(Cl)c2)c1` [Example 286, (S)-N-(2-amino-1-(3-chlorophenyl)ethyl)-1-(2-((4,4-difluorocyclohexyl)amino)-5-methylpyrmidin-4-yl)-1H-imidazole-4-carboxamide], the IC50 in assay [1] (setting [4]), in assay [2] (setting [5]) and in assay [3] (setting [6]) was no more than 100 nM each time.

Turning to `O=C(NC(CO)c1cccc(Cl)c1)c1ccn(-c2ccnc(Nc3ccc4c(c3)OC(F)(F)O4)n2)c1` (stereo not shown) [Example 176, N-(1-(3-chlorophenyl)-2-hydroxyethyl)-1-(2-((2,2-difluorobenzo[d][1,3]dioxol-5-yl)amino)pyrimidin-4-yl)-1H-pyrrole-3-carboxamide], the half-inhibitory concentration (IC50) in assay [1] (setting [4]) is 500 to 2500 nM; in assay [2] (setting [5]), 500 to 2500 nM; in assay [3] (setting [6]) it was greater than 2500 nM.

For `Cc1cnc(Nc2ccc3c(c2)OC(C)(C)O3)nc1-n1ccc(C(=O)NC(CO)c2ccccc2)c1` (stereo not shown) [Example 95, 1-(2-((2,2-dimethyl-benzo[d][1,3]dioxol-5-yl)-amino)-5-methyl-pyrimidin-4-yl)-N-(2-hydroxy-1-phenylethyl)-1H-pyrrole-3-carboxamide], the half-maximal inhibitory concentration (IC50) is 250 to 500 nM in assay [1] (setting [4]), 250 to 500 nM in assay [2] (setting [5]) and 500 to 2500 nM in assay [3] (setting [6]).

With `Cc1cnc(N[C@H]2CCOC2)nc1-n1ccc(C(=O)NC(CO)c2ccc(F)cc2)c1` (stereo partly drawn) [Example 204, N-(1-(4-fluorophenyl)-2-hydroxyethyl)-1-(5-methyl-2-(((S)-tetrahydrofuran-3-yl)amino)pyrimidin-4-yl)-1H-pyrrole-3-carboxamide], the results for the IC50 in assay [1] (setting [4]), in assay [2] (setting [5]) and in assay [3] (setting [6]) were 500 to 2500 nM, 500 to 2500 nM and greater than 2500 nM, respectively.

`Cc1cnc(NC2CCOCC2)nc1-n1cnc(C(=O)N[C@H](CNCC2CC2)c2cccc(Cl)c2)c1` [Example 339, 1-[5-Methyl-2-(tetrahydro-pyran-4-ylamino)-pyrimidin-4-yl]-1H-imidazole-4-carboxylic acid [(S)-1-(3-chloro-phenyl)-2-(cyclopropylmethyl-amino)-ethyl]-amide]: the IC50 in assay [1] (setting [5]), in assay [2] (setting [5]) and in assay [3] (setting [6]) was no more than 100 nM in each case.

With `Cc1cnc(NC2CCCOC2)nc1-n1ccc(C(=O)NC(CO)c2ccccc2)c1` (stereo not shown) [Example 141, N-(2-hydroxy-1-phenylethyl)-1-(5-methyl-2-((tetrahydro-2H-pyran-3-yl)amino)-pyrimidin-4-yl)-1H-pyrrole-3-carboxamide], the IC50 in assay [1] (setting [4]), in assay [2] (setting [5]) and in assay [3] (setting [6]) was greater than 2500 nM each time.

Turning to `Cc1cnc(N[C@H]2CCOC2)nc1-n1cnc(C(=O)NCc2cccc(Cl)c2)c1` [Example 318, (S)-N-(3-chlorobenzyl)-1-(5-methyl-2-((tetrahydrofuran-3-yl)amino)pyrimidin-4-yl)-1H-imidazole-4-carboxamide], the IC50 in assay [1] (setting [5]) was 500 to 2500 nM; in assay [2] (setting [5]) it was 500 to 2500 nM; in assay [3] (setting [6]), greater than 2500 nM.

`Cc1cnc(Nc2ccc3c(c2)OCCO3)nc1-n1ccc(C(=O)NC(CO)c2ccccc2)c1` (stereo not shown) [Example 131, 1-(2-((2,3-dihydro-benzo[b][1,4]dioxin-6-yl)-amino)-5-methyl-pyrimidin-4-yl)-N-(2-hydroxy-1-phenylethyl)-1H-pyrrole-3-carboxamide]: the IC50 in assay [1] (setting [4]), in assay [2] (setting [5]) and in assay [3] (setting [6]) was 250 to 500 nM in each case.

`O=C(NC(CO)c1ccccc1)c1ccn(-c2ccnc(Nc3ccccc3)c2)c1` (stereo not shown) [Example 71, N-(2-hydroxy-1-phenylethyl)-1-(2-(phenylamino)pyridin-4-yl)-1H-pyrrole-3-carboxamide]: the IC50 in assay [1] (setting [4]) was 250 to 500 nM; in assay [2] (setting [5]), 500 to 2500 nM; in assay [3] (setting [6]) it was greater than 2500 nM.

Take `Cc1cnc(NC2CCOCC2)nc1-n1cnc(C(=O)NCc2cccc(Cl)c2CN)c1` [Example 285, N-(2-(aminomethyl)-3-chlorobenzyl)-1-(5-methyl-2-((tetrahydro-2H-pyran-4-yl)amino)pyrimidin-4-yl)-1H-imidazole-4-carboxamide]: the results for the IC50 in assay [1] (setting [4]), in assay [2] (setting [5]) and in assay [3] (setting [6]) were no more than 100 nM, no more than 100 nM and 100 to 250 nM, respectively.

With `Cc1cnc(NC2CCOCC2)nc1-n1cnc(C(=O)NCc2cccc(Cl)n2)c1` [Example 307, N-((6-chloropyridin-2-yl)methyl)-1-(5-methyl-2-((tetrahydro-2H-pyran-4-yl)amino)pyrimidin-4-yl)-1H-imidazole-4-carboxamide], the IC50 in assay [1] (setting [4]) and in assay [2] (setting [5]) was 500 to 2500 nM throughout.

With `Cc1cnc(NC2CCOCC2)nc1-n1cnc(C(=O)NC(C(N)=O)c2cccc(Cl)c2)c1` (stereo not shown) [Example 312, N-(2-amino-1-(3-chlorophenyl)-2-oxoethyl)-1-(5-methyl-2-((tetrahydro-2H-pyran-4-yl)amino)pyrimidin-4-yl)-1H-imidazole-4-carboxamide], the results for the concentration for half-maximal inhibition (IC50) in assay [1] (setting [5]) and in assay [3] (setting [6]) were 500 to 2500 nM and greater than 2500 nM, respectively.

The record behind these values is US11925629B2, “Heterocyclic inhibitors of ERK1 and ERK2 and their use in the treatment of cancer” (Asana Biosciences, LLC, priority 2015, dated 2024).
